Experimental data as given in patent US8778298B2, “Isotope labeled 2-arylpropionic acid compounds and process for production of same, and molecular probe for positron emission tomography and method for imaging of cyclooxygenase and the like using same” (Riken, priority 2009, dated 2014).

Tests used:
Type in all cases: in vivo
cyclooxygenase-2 [1] = test: PET imaging using brain inflammation model rat (LPS injected into left striatum)
Method: PET was performed using a brain inflammation model rat for the [^11C]ketoprofen methyl ester (8) synthesized in Example 6. In the experiment, a trace amount, 0.5 μg, of lipopolysaccharide (LPS) that is a constituent of a gram-negative bacteria cell wall outer membrane was injected into the left striatum of a rat, thereby inducing brain inflammation (Hunter R L, Dragicevic N, Seifert K, Choi D Y, Liu M, Kim H C, Cass W A, Sullivan P G, Bing G. Inflammation induces mitochondrial dysfunction and dopaminergic neurodegeneration in the nigrostriatal system. J. Neurochem. 2007100:5:1375-86.). The [^11C]ketoprofen methyl ester (8) was administered to a rat after 1 day from injection of LPS through a caudal vein, PET was performed for 45 minutes using a PET apparatus for small animals (manufactured by microPET, SIMENS). The injection solution of the [^11C]ketoprofen methyl ester (radioactivity 72 to 74 MBq) was prepared by diluting with saline to 1.0 CC volume. In order to further study an effect of inhibiting bonds by a non-RI labeled body, an injection solution added with 10 mg/kg of ketoprofen methyl ester (final concentration of a solvent was 5% DMSO, 5% tween20) was prepared. On completion of PET imaging, a rat brain section was prepared and an Ex vivo autoradiography (ARG) experiment was performed. In the experiment, the rat was perfused with saline, and a section prepared with 2 mm thickness, which was obtained from the brain taken out from the rat, was exposed on an imaging plate BAS SR-2040 (manufactured by Fujifilm Corporation) for 1 hour to read using a fluoroimage analyzer (FLA7000). In order to identify an expression site of cyclooxygenase-2, chemical staining of an immune tissue in a brain section was performed using a specific antibody. That is, 20 μm of a frozen section prepared from the brain section used in the autoradiography mentioned above and pasted on a slide glass was incubated with anti-cyclooxygenase-2 (rabbit IgG, polyclonal antibody, manufactured by Cayman) diluted to PBS-T at a concentration of 200 times as a primary antibody at 4° C. overnight. […]

cyclooxygenase-2 [2] = test: Ex vivo autoradiography (ARG) of rat brain section after PET, compared with cyclooxygenase-2 immunostaining
Method: PET was performed using a brain inflammation model rat for the [^11C]ketoprofen methyl ester (8) synthesized in Example 6. In the experiment, a trace amount, 0.5 μg, of lipopolysaccharide (LPS) that is a constituent of a gram-negative bacteria cell wall outer membrane was injected into the left striatum of a rat, thereby inducing brain inflammation (Hunter R L, Dragicevic N, Seifert K, Choi D Y, Liu M, Kim H C, Cass W A, Sullivan P G, Bing G. Inflammation induces mitochondrial dysfunction and dopaminergic neurodegeneration in the nigrostriatal system. J. Neurochem. 2007100:5:1375-86.). The [^11C]ketoprofen methyl ester (8) was administered to a rat after 1 day from injection of LPS through a caudal vein, PET was performed for 45 minutes using a PET apparatus for small animals (manufactured by microPET, SIMENS). The injection solution of the [^11C]ketoprofen methyl ester (radioactivity 72 to 74 MBq) was prepared by diluting with saline to 1.0 CC volume. […] In the experiment, the rat was perfused with saline, and a section prepared with 2 mm thickness, which was obtained from the brain taken out from the rat, was exposed on an imaging plate BAS SR-2040 (manufactured by Fujifilm Corporation) for 1 hour to read using a fluoroimage analyzer (FLA7000). […]

APP-Tg mouse brain = test: PET imaging of Alzheimer disease model animal (APP-Tg mouse vs wild type mouse)
Excerpt: PET images were taken using an Alzheimer disease model mouse for the [^11C]ketoprofen methyl ester (21) synthesized in Example 6. For the Alzheimer disease model mouse, a transgenic mouse (APP-Tg) excessively expressing amyloid precursor protein (APP) in familial Alzheimer disease was purchased from Taconic Farms, Inc. USA to be used. In 24 months old when accumulation of amyloid β protein was confirmed as pathological change of Alzheimer disease, the [^11C]ketoprofen methyl ester (21) was administered through a caudal vein, and PET images were taken for 30 minutes using a PET apparatus for small animals (microPET, manufactured by SIMENS). The injection solution of the [^11C]ketoprofen methyl ester (21) (radioactivity 45 to 60 MBq) was prepared by diluting with saline to 1.0 CC volume. SUV (Standard Uptake Value)=tissue radioactivity in region of interest (MBq/g)÷[administration amount (MBq)/body weight (g)] was used as the index of an accumulation level, to compare with a brain of a wild type mouse that is a normal mouse in terms of an accumulation amount into the APP-Tg mouse brain.

COC(=O)C([11CH3])c1cccc(C(=O)c2ccccc2)c1 (stereo not shown) [[^11C]ketoprofen methyl ester (8), [^11C]ketoprofen methyl ester]
accumulation in inflammation region with co-administered non-RI labeled ketoprofen methyl ester (specificity) (cyclooxygenase-2 [1]; 10 mg/kg of non-RI labeled ketoprofen methyl ester added to injection solution): significantly reduced
passage through the blood-brain barrier (PET) (cyclooxygenase-2 [1]; rat 1 day after 0.5 μg LPS into left striatum, tracer via caudal vein, PET 45 minutes): passed through the blood-brain barrier
accumulation of radioactivity in brain (addition average of PET images) (cyclooxygenase-2 [1]; rat 1 day after LPS into left striatum, tracer via caudal vein, 45 minutes after administration): accumulated in an inflammation region around the LPS injected site in the left side of the brain
accumulation in ex vivo autoradiography (ARG) of rat brain section (cyclooxygenase-2 [2]; 2 mm brain section taken on completion of PET imaging, LPS rat): accumulated specifically in an inflammation site
accumulated site versus immunostaining of cyclooxygenase-2 (cyclooxygenase-2 [2]; 20 μm frozen section from ARG brain section, anti-cyclooxygenase-2 antibody, DAB method): correspond with a positive site of immunostaining of cyclooxygenase-2
accumulation amount (SUV) in brain, APP-Tg versus wild type mouse (APP-Tg mouse brain; 24 months old APP-Tg mouse, caudal vein, PET images in 25 minutes after 5 minutes from administration): highly accumulated in the APP-Tg mouse brain as compared with the wild type mouse brain
site of high accumulation versus reported site of amyloid β accumulation (APP-Tg mouse brain; APP-Tg mouse brain, compared with literature report (Am J Pathol. 1998)): corresponded with a site that was reported of accumulation of amyloid β
